The results in this text go back to PubChem BioAssay AID1259407 (Chemical Carcinogenesis Research Information System (CCRIS), 2018).

Active and inactive are the calls of the source. How the calls were made is not given here.

For this data set, the system named is CCRIS mutagenicity, Ames/micronucleus/aberration tests. The experiment in a line: CCRIS mutagenicity studies.
Setting [1] is: Test System: AMES SALMONELLA TYPHIMURIUM, Strain/Indicator: TA98, Metabolic Activation: NONE, Method: STANDARD PLATE.
[2] abbreviates: Test System: AMES SALMONELLA TYPHIMURIUM, Strain/Indicator: TA100, Metabolic Activation: NONE, Method: STANDARD PLATE.
Where [3] appears, read: Test System: AMES SALMONELLA TYPHIMURIUM, Strain/Indicator: TA98, Metabolic Activation: RAT, LIVER, S-9, AROCLOR 1254, Method: STANDARD PLATE.
The mark [4] stands for this setting: Test System: AMES SALMONELLA TYPHIMURIUM, Strain/Indicator: TA100, Metabolic Activation: RAT, LIVER, S-9, AROCLOR 1254, Method: STANDARD PLATE.
Where [5] appears, read: Test System: AMES SALMONELLA TYPHIMURIUM, Strain/Indicator: TA1535, Metabolic Activation: NONE, Method: STANDARD PLATE.
Where [6] appears, read: Test System: AMES SALMONELLA TYPHIMURIUM, Strain/Indicator: TA1535, Metabolic Activation: RAT, LIVER, S-9, AROCLOR 1254, Method: STANDARD PLATE.
Setting [7] is: Test System: AMES SALMONELLA TYPHIMURIUM, Strain/Indicator: TA1538, Metabolic Activation: NONE, Method: STANDARD PLATE.
Setting [8] is: Test System: AMES SALMONELLA TYPHIMURIUM, Strain/Indicator: TA1538, Metabolic Activation: RAT, LIVER, S-9, AROCLOR 1254, Method: STANDARD PLATE.
Where [9] appears, read: Test System: AMES SALMONELLA TYPHIMURIUM, Strain/Indicator: TA1537, Metabolic Activation: NONE, Method: STANDARD PLATE.
The mark [10] stands for this setting: Test System: AMES SALMONELLA TYPHIMURIUM, Strain/Indicator: TA1537, Metabolic Activation: RAT, LIVER, S-9, AROCLOR 1254, Method: STANDARD PLATE.

In the case of `O=[N+]([O-])c1cc2c3c(c1)CCc1cc([N+](=O)[O-])cc(c1-3)CC2`, the mutagenic call was “active; positive” (Test System: AMES SALMONELLA TYPHIMURIUM, Strain/Indicator: TA98(1,8-DNP6), Metabolic Activation: NONE, Method: STANDARD PLATE); “active; positive” (Test System: AMES SALMONELLA TYPHIMURIUM, Strain/Indicator: TA98(NR), Metabolic Activation: NONE, Method: STANDARD PLATE); “active; positive” under setting [1].
As for `O=[N+]([O-])c1ccc(/C=N\O)o1`, the mutagenic call is “active; positive” (Test System: E. COLI, Strain/Indicator: WP2 UVRA, Metabolic Activation: NONE, Method: SPOT) and “active; positive” (Test System: E. COLI, Strain/Indicator: WP2 UVRA, Metabolic Activation: NONE, Method: STANDARD PLATE).
Take `CN=c1ccc2nc3ccc(N)cc3sc-2c1`: the mutagenic call (Test System: Ames Salmonella typhimurium, Strain/Indicator: TA98, Metabolic Activation: None, Method: Preincubation) was “active; positive”; the mutagenic call (Test System: Ames Salmonella typhimurium, Strain/Indicator: TA98, Metabolic Activation: Rat, Liver, S-9, Aroclor 1254 (10%), Method: Preincubation) is “active; positive”; the mutagenic call (Test System: Ames Salmonella typhimurium, Strain/Indicator: TA100, Metabolic Activation: None, Method: Preincubation) was “active; positive”; the mutagenic call (Test System: Ames Salmonella typhimurium, Strain/Indicator: TA100, Metabolic Activation: Rat, Liver, S-9, Aroclor 1254 (10%), Method: Preincubation) was “active; positive”; the mutagenic call (Test System: E. coli, Strain/Indicator: WPM uvrA/pKM101, Metabolic Activation: None, Method: Preincubation) is “active; positive”; the mutagenic call (Test System: E. coli, Strain/Indicator: WPM uvrA/pKM101, Metabolic Activation: Rat, Liver, S-9, Aroclor 1254 (10%), Method: Preincubation) is “active; positive”.
In the case of `Cc1c(N)nc(C(CC(N)=O)NCC(N)C(N)=O)nc1C(=O)NC(C(=O)NC(C)C(O)C(C)C(=O)NC(C(=O)NCCc1nc(-c2nc(C(=O)O)cs2)cs1)C(C)O)C(OC1OC(CO)C(O)C(O)C1OC1OC(CO)C(O)C(OC(N)=O)C1O)c1cnc[nH]1` (stereo unspecified), where the note is “Test System: AMES SALMONELLA TYPHIMURIUM, Strain/Indicator: TA102, Metabolic Activation: NONE, Method: PREINCUBATION”, the mutagenic call was “inactive; negative”.
With `Cc1ccc2[nH]c3c(C)ccc(C)c3c2c1`, the mutagenic call was “inactive; negative” under setting [1]; “active; positive” (Test System: AMES SALMONELLA TYPHIMURIUM, Strain/Indicator: TA98, Metabolic Activation: RAT LIVER S-9, AROCLOR 1254, Method: STANDARD PLATE); “inactive; negative” under setting [2]; “inactive; negative” (Test System: AMES SALMONELLA TYPHIMURIUM, Strain/Indicator: TA100, Metabolic Activation: RAT LIVER S-9, AROCLOR 1254, Method: STANDARD PLATE).
With `O=C(COc1cc(Cl)c(Cl)cc1Cl)N[C@@H](Cc1c[nH]c2ccccc12)C(=O)O`, the mutagenic call runs as follows: (Test System: AMES SALMONELLA TYPHIMURIUM, Strain/Indicator: TA97, Metabolic Activation: NONE, Method: STANDARD PLATE) “inactive; negative”; (Test System: AMES SALMONELLA TYPHIMURIUM, Strain/Indicator: TA97, Metabolic Activation: RAT, LIVER, S-9, AROCLOR 1254, Method: STANDARD PLATE) “inactive; negative”; under setting [1], “inactive; negative”; under setting [3], “inactive; negative”; under setting [2], “inactive; negative”; under setting [4], “inactive; negative”. Moreover, the mutagenic call under setting [5] is “inactive; negative”, the mutagenic call under setting [6] is “inactive; negative”, the mutagenic call under setting [7] was “inactive; negative” and the mutagenic call under setting [8] is “inactive; negative”.
As to `Nc1ccc(O)c2c1C(=O)c1ccccc1C2=O`, the mutagenic call under setting [3] was “inactive; negative”; the mutagenic call under setting [2] is “inactive; negative”; the mutagenic call under setting [4] is “inactive; negative”; the mutagenic call under setting [5] is “inactive; negative”; the mutagenic call under setting [6] was “inactive; negative”; the mutagenic call under setting [9] was “active; positive”. Also, the mutagenic call under setting [10] is “active; positive” and the mutagenic call under setting [8] was “inactive; negative”.
On to `Cc1ccc(N)cc1Cl`, for which the mutagenic call under setting [1] was “inactive; negative”; the mutagenic call under setting [3] was “inactive; negative”; the mutagenic call under setting [2] was “inactive; negative”; the mutagenic call under setting [4] is “inactive; negative”; the mutagenic call under setting [5] is “inactive; negative”; the mutagenic call under setting [6] was “inactive; negative”. Further, the mutagenic call reads like this: under setting [9], “inactive; negative”; under setting [10], “inactive; negative”; under setting [7], “inactive; negative”; under setting [8], “inactive; negative”; (Test System: CHINESE HAMSTER OVARY, Strain/Indicator: CHO-K1-BH4 (HPRT)/6-THIOGUANINE, Metabolic Activation: NONE) “inactive; negative”; (Test System: CHINESE HAMSTER OVARY, Strain/Indicator: CHO-K1-BH4 (HPRT)/6-THIOGUANINE, Metabolic Activation: RAT, LIVER, S-9, AROCLOR 1254) “inactive; negative”.
